From PubChem BioAssay (NCI) come the findings set out here.

Test systems include SNB-19 CNS; SF-268 CNS; HCT-116 colon; SF-295 CNS; DU-145 prostate; K-562 leukemia; HOP-92 NSCLC; OVCAR-3 ovarian; OVCAR-8 ovarian.
What all share (test): growth of human tumour cells (NCI), 48 h

Where “and” joins values, the source holds several entries; their conditions need not be identical. Identical values can stand only once.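 A five-concentration, 48-hour dose response in 96-well plates underlies each endpoint, interpolated linearly between surrounding concentrations. GI50 is the concentration that inhibits growth by half. TGI is the concentration that stops growth completely.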 Where only a bound is given, the exact number is not on record here.

As to `CC(C)c1ccc(O)c(=O)cc1`, the GI50 was 15.3 µM in the assay with SNB-19 CNS; 7.43 µM in the assay on SF-268 CNS; 3.92 µM in the assay with HCT-116 colon; 7.57 µM in the assay with SF-295 CNS; 9.43 µM in the assay with DU-145 prostate; 3.63 µM with K-562 leukemia. The GI50 with HOP-92 NSCLC was 3.12 µM; with OVCAR-3 ovarian, 2.03 µM; in the assay on OVCAR-8 ovarian, 3.54 µM. The TGI was greater than 71.4 µM with SNB-19 CNS; greater than 62.1 µM in the assay on SF-268 CNS; 13.4 µM and 37.2 µM with HCT-116 colon; greater than 100 µM with SF-295 CNS; > 53.1 µM and 14.6 µM in the assay on K-562 leukemia; greater than 100 µM with HOP-92 NSCLC. Further, the TGI in the assay with OVCAR-3 ovarian was > 100 µM and 18.3 µM; in the assay on OVCAR-8 ovarian, greater than 100 µM.

For `COc1ccc(CCC2NCCc3cc(OC)c(OC)cc32)cc1` (stereo not given), the TGI in the assay on SNB-19 CNS, in the assay with SF-268 CNS, with HCT-116 colon, in the assay with SF-295 CNS, in the assay on K-562 leukemia and in the assay on OVCAR-3 ovarian was greater than 100 µM each time. Moreover, in the assay on OVCAR-8 ovarian, the TGI is greater than 100 µM.

As to `CCC(C)CC(CC)NCCN1CCN(C(CC)CC(C)CC)C1=S` (stereo not given), the GI50 with SNB-19 CNS was 1.73 µM; with SF-268 CNS it was 1.92 µM; in the assay with HCT-116 colon, 1.79 µM; with SF-295 CNS, 1.86 µM; with DU-145 prostate it was 2.17 µM; in the assay on HOP-92 NSCLC, 1.05 µM. Further, the GI50 in the assay with OVCAR-3 ovarian was 1.97 µM; with OVCAR-8 ovarian, 1.66 µM. For the same molecule, the TGI in the assay on SNB-19 CNS was determined as 3.87 µM; with SF-268 CNS, 4.11 µM; in the assay with HCT-116 colon it was 3.27 µM; in the assay on SF-295 CNS, 3.68 µM; with DU-145 prostate, 4.71 µM; in the assay on HOP-92 NSCLC, 2.96 µM. Moreover, the TGI with OVCAR-3 ovarian came to 4.08 µM; with OVCAR-8 ovarian, 3.05 µM.

As for `COc1ccc(S(=O)(=O)N/N=C(\C)CN2C(=O)c3ccccc3C2=O)cc1`, the TGI in the assay with SNB-19 CNS, in the assay with SF-268 CNS, with HCT-116 colon, in the assay with SF-295 CNS, with K-562 leukemia and with OVCAR-3 ovarian was greater than 100 µM in each case. The TGI with OVCAR-8 ovarian is greater than 100 µM.

For `O=C1CCC2CCOc3ccc(O)c1c32` (stereo not given), the TGI with SNB-19 CNS, in the assay on SF-268 CNS, in the assay with HCT-116 colon, in the assay with SF-295 CNS, with K-562 leukemia and in the assay with HOP-92 NSCLC was greater than 100 µM each time. The TGI in the assay on OVCAR-3 ovarian and in the assay with OVCAR-8 ovarian was greater than 100 µM throughout.

With `Cc1ccc(N(C(=O)CC(=O)N2N=C(c3ccccc3)C(N=Nc3ccc([N+](=O)[O-])cc3)C2=O)C(=O)c2ccc(Cl)cc2)cc1` (stereo not given), the TGI in the assay with SNB-19 CNS was 60.1 µM; with SF-268 CNS, 35.4 µM; in the assay with HCT-116 colon, 22.4 µM; in the assay with SF-295 CNS, 25.6 µM; in the assay with K-562 leukemia, greater than 71.3 µM; in the assay with HOP-92 NSCLC, 56.5 µM. For the same molecule, the TGI in the assay with OVCAR-3 ovarian was greater than 91.6 µM; in the assay with OVCAR-8 ovarian it was 38.3 µM.

As to `Cc1cccc(N2C(=O)C(=O)C(c3nc4ccccc4s3)C(=O)C2=O)c1C`, the TGI with SNB-19 CNS, with SF-268 CNS, with HCT-116 colon, in the assay on SF-295 CNS, in the assay on K-562 leukemia and with HOP-92 NSCLC was greater than 100 µM throughout. The TGI with OVCAR-3 ovarian and with OVCAR-8 ovarian was greater than 100 µM each time.

Turning to `COc1ccc(-c2c(C#N)c(N)nc3c2CCCc2ccc(F)cc2-3)cc1OC`, the GI50 in the assay on SNB-19 CNS was 20.7 µM; in the assay on SF-268 CNS, 0.0335 µM; in the assay with HCT-116 colon it was 0.187 µM; with SF-295 CNS, less than 0.01 µM; in the assay with DU-145 prostate it was 0.0164 µM; in the assay with K-562 leukemia, less than 0.01 µM. Also, the GI50 was 4.73 µM with HOP-92 NSCLC, less than 0.01 µM with OVCAR-3 ovarian and 0.419 µM in the assay with OVCAR-8 ovarian. Moreover, the TGI in the assay on SNB-19 CNS was greater than 92.1 µM; with SF-268 CNS, greater than 100 µM; with HCT-116 colon, 11 µM; with DU-145 prostate, 15.7 µM; with K-562 leukemia, greater than 100 µM; with HOP-92 NSCLC, greater than 100 µM. Besides, in the assay on OVCAR-8 ovarian, the TGI was greater than 100 µM.

Turning to `COC1(OC)c2ccccc2C2(O)c3ccccc3C(=O)C12` (stereo not given), the TGI in the assay on SNB-19 CNS, with SF-268 CNS, in the assay on HCT-116 colon, in the assay on SF-295 CNS, with K-562 leukemia and in the assay with HOP-92 NSCLC was greater than 100 µM throughout. The TGI with OVCAR-3 ovarian and with OVCAR-8 ovarian was greater than 100 µM in each case.

Consider `C1C[OH+]CC[OH+]CC[OH+]CC[OH+]CC[OH+]CC[OH+]1.[Cl-].[Ta+5]`, for which the GI50 was 24.3 µM in the assay with SNB-19 CNS; greater than 100 µM in the assay with SF-268 CNS; greater than 100 µM with HCT-116 colon; greater than 100 µM with SF-295 CNS; greater than 100 µM in the assay with K-562 leukemia; greater than 100 µM in the assay on HOP-92 NSCLC. For the same molecule, the GI50 with OVCAR-3 ovarian and with OVCAR-8 ovarian was greater than 100 µM in each case. For the same molecule, the TGI in the assay with SNB-19 CNS, in the assay on SF-268 CNS, in the assay on HCT-116 colon, in the assay with SF-295 CNS, in the assay on K-562 leukemia and with HOP-92 NSCLC was greater than 100 µM in each case. For the same molecule, the TGI in the assay with OVCAR-3 ovarian and with OVCAR-8 ovarian was greater than 100 µM throughout.

In the case of `Cc1nn(C)c(=O)c2nn(-c3ccccc3)c(C)c12`, the TGI with SNB-19 CNS, in the assay on SF-268 CNS, in the assay with HCT-116 colon, with SF-295 CNS, in the assay on K-562 leukemia and with OVCAR-3 ovarian was greater than 100 µM in each case. In addition, the TGI in the assay on OVCAR-8 ovarian is greater than 100 µM.

Regarding `C=CCC(C)(C(=O)NCCC)C(=O)c1ccccc1O` (stereo not given), the TGI in the assay on SNB-19 CNS, with SF-268 CNS, in the assay with HCT-116 colon, with K-562 leukemia, with OVCAR-3 ovarian and in the assay with OVCAR-8 ovarian was greater than 100 µM throughout.

For the molecule `CC1=N/C(=C\c2cccc3ccccc23)C(=O)O1`, the TGI with SNB-19 CNS, with SF-268 CNS, in the assay with HCT-116 colon, with SF-295 CNS, in the assay on K-562 leukemia and in the assay with HOP-92 NSCLC was greater than 100 µM each time. In the assay on OVCAR-8 ovarian, the TGI was greater than 100 µM.

For the molecule `O=C(/C=C/c1ccc(Cl)cc1)c1ccncc1`, the TGI with SNB-19 CNS, with SF-268 CNS, in the assay on HCT-116 colon, with SF-295 CNS, in the assay on K-562 leukemia and in the assay with HOP-92 NSCLC was greater than 100 µM throughout. For the same molecule, the TGI in the assay on OVCAR-3 ovarian and in the assay with OVCAR-8 ovarian was greater than 100 µM in each case.

Turning to `C=CCNC(=S)OCCCCCCCCCC`, the TGI amounted to 83.9 µM in the assay with SNB-19 CNS; 33.6 µM in the assay on SF-268 CNS; 30.6 µM in the assay with HCT-116 colon; 34.5 µM in the assay on SF-295 CNS; 29.6 µM in the assay with K-562 leukemia; 31.2 µM in the assay with OVCAR-8 ovarian.
